Our source for the IC50 values is ChEMBL document CHEMBL1139104, “Synthesis and evaluation of 4-O-alkylated 2-deoxy-2,3-didehydro-N-acetylneuraminic acid derivatives as inhibitors of human parainfluenza virus type-3 sialidase activity” (Bioorg Med Chem Lett, 2007).

SMILES strings stand for the structures. pIC50: −log10 of the molar value.

The experiment in a line: Inhibition of sialidase in Human parainfluenza virus 3 C243. Details: species or system Human respirovirus 3.
`CCCCCCCCCCO[C@H]1C=C(C(=O)O)O[C@@H]([C@H](O)[C@H](O)CO)[C@@H]1NC(C)=O` had a pIC50 of 5.00.
The molecule `CC(=O)N[C@H]1[C@H]([C@H](O)[C@H](O)CO)OC(C(=O)O)=C[C@@H]1OCc1ccccc1` gave a pIC50 of 5.00.
Next, `CCO[C@H]1C=C(C(=O)O)O[C@@H]([C@H](O)[C@H](O)CO)[C@@H]1NC(C)=O`: 5.52; `CCCCCCO[C@H]1C=C(C(=O)O)O[C@@H]([C@H](O)[C@H](O)CO)[C@@H]1NC(C)=O`: 5.30; `CC(=O)N[C@H]1[C@H]([C@H](O)[C@H](O)CO)OC(C(=O)O)=C[C@@H]1OCc1ccccc1-c1ccccc1`: 4.52.
Under `CC(=O)N[C@H]1[C@H]([C@H](O)[C@H](O)CO)OC(C(=O)O)=C[C@@H]1O` [NEU5AC2EN] stands 4.62; under `CC(=O)N[C@H]1[C@H]([C@H](O)[C@H](O)CO)OC(C(=O)O)=C[C@@H]1NC(=N)N` [ZANAMIVIR], 4.60.
